Measurements reported in patent publication US6426317B1, “Stable, high available halogen 1,3,5-triazine-2,4,6-trione compositions having rapid dissolution rates” (Great Lakes Chemical Corporation, priority 1999, dated 2002).

How the values were obtained:
[1] = in water at 20° C.; cited from earlier work
[2] = NFPA scale from 1 to 4, NFPA 430, 1995 edition; cited from earlier work
[3] = Total chlorine in synthetic pool water exposed to environmental UV light (Example 7); type: physicochemical; set-up: unit not given here
[4] = Off-gassing of roll-compacted granules contaminated with water (Examples 4-6); type: physicochemical; details: Table 9; Example 6
[5] = Solubility (15-minute dissolution) of granules in balanced swimming pool water, thiosulfate titration; details: Table 9; Example 6
[6] = for effect of additive on off-gassing of trichloroisocyanuric acid: Example 1, 25.5% additive
[7] = Off-gassing of granular formula compositions (Example 3); type: physicochemical; details: Example 3, granules
Protocol: The formula compositions produced in this example were tested for their stability and in some cases for their solubility. The components used included a dissolution aid: disodium cyanurate, and a disintegration agent: microcrystalline cellulose, Lattice® NT (FMC).
Again, blended powder samples were prepared for each formula composition. A 20-gram sample of each test formula composition was placed in a 2.0 inch diameter dye-punch set and compressed under 22 tons of force for 60 minutes using a Carver press. The compressed wafer was reduced to granules using a spatula and a mortar and pestle set. Properly sized granules were collected using a standard sieve shaker.
Approximately one gram of each granular formula composition sample was placed in an eight-ounce sample container. […] The containers were vapor sealed and carefully placed in an approximately 50° C. oven for 24 hours. After the sample set was removed from the oven and cooled, a one-ml aliquot from each sample was placed in 50 ml of deionized water and titrated with 0.100 N sodium thiosulfate. The volume of thiosulfate reagent used to titrate the available halogen in the KI solution was recorded.

## [Ca+2].[O-]Cl.[O-]Cl [Calcium hypochlorite, calcium hypochlorite]
[1]
  Solubility: ≅22^3 g/100g (%)
[2]
  Oxidizer Rating: 3
[3]; sampling time 0:00 (Hr:Min), 10 ppm available halogen added, outdoor UV light
  Total Cl: 0.02
[3]; sampling time 0:05
  Total Cl: 6.8
[3]; sampling time 0:10
  Total Cl: 6.8
[3]; sampling time 0:15
  Total Cl: 7.2
[3]; sampling time 0:20
  Total Cl: 6.8
[3]; sampling time 0:25
  Total Cl: 6.0
[3]; sampling time 0:30
  Total Cl: 5.1
[3]; sampling time 0:40
  Total Cl: 5.0
[3]; sampling time 0:50
  Total Cl: 3.3
[3]; sampling time 1:00
  Total Cl: 3.5
[3]; sampling time 1:15
  Total Cl: 2.2
[3]; sampling time 1:30
  Total Cl: 2.6

## [Li+].[O-]Cl [Lithium hypochlorite]
[1]
  Solubility: ≅43^3 g/100g (%)
[2]
  Oxidizer Rating: 2

## O=c1[n-]c(=O)n(Cl)c(=O)n1Cl.[K+] [Potassium dichloroisocyanurate anhydrous, potassium dichloroisocyanurate]
[1]
  Solubility: 5.0^4 g/100g (%)
[2]
  Oxidizer Rating: 3

## O=c1nc([O-])n(Cl)c(=O)n1Cl.[Na+] [Sodium dichloroisocyanurate anhydrous, sodium dichloroisocyanurate]
[1]
  Solubility: 12.5^4 g/100g (%)
[2]
  Oxidizer Rating: 3

## O=c1n(Cl)c(=O)n(Cl)c(=O)n1Cl [Trichloroisocyanuric acid, 1,3,5-trichloro-1,3,5-triazine-2,4,6-trione]
[4]
  Off-Gassing Titrant Volume: 2.00 mL
[1]
  Solubility: 1.2^4 g/100g (%)
[2]
  Oxidizer Rating: 1
[5]
  Solubility Titrant Volume: 1.90 mL
[6]; Table 1, compressed powder wafer, 5 ml 15% KI, approximately 50° C., 24 hours, 0.100 N sodium thiosulfate
  Titrant Volume (off-gassing): 2.65 mL

## OB(O)O [boric acid]
[6]
  effect of additive on off-gassing of trichloroisocyanuric acid: do not significantly affect the off-gassing profile of trichloroisocyanuric acid

## O=c1nc([O-])nc([O-])[nH]1.[Na+].[Na+] [disodium cyanurate, disodium salt of 1,3,5-triazine-2,4,6-trione]
[7]
  effect of additive on off-gassing: do not significantly affect the off-gassing profile

## O=C([O-])O.[Na+] [sodium bicarbonate]
[6]
  effect of additive on off-gassing of trichloroisocyanuric acid: increase gassing significantly
